Source: US8629173B2, “Solid forms comprising (+)-2-[1-(3-ethoxy-4-methoxyphenyl)-2-methylsulfonylethyl]-4-acetylaminoisoindoline-1,3-dione, compositions thereof, and uses thereof” (Celgene Corporation, priority 2002, dated 2014)

Tested on: conscious ferret
Experiment: Emesis and behavioral changes in conscious ferret
Type: in vivo
Experimental: The conscious ferret model has been used to investigate anti-inflammatory, emetic and behavioral effects of PDE4 inhibitors when administered by the oral (p.o.) route. From these experiments, a therapeutic index (TI) for each PDE4 inhibitor may be determined. The TI has been calculated by dividing the threshold dose for causing emetic episodes and behavioral changes by the anti-inflammatory dose (dose that causes 50% inhibition of the LPS-induced neutrophilia).
PDE4 inhibitors were administered orally (p.o.), at doses initially of […], but subsequently up to 30 mg/kg in order to establish whether the TI was 10 or higher, and/or at lower doses to establish the minimum dose to cause 50% inhibition of neutrophilia. Ferrets were fasted overnight but allowed free access to water. The animals were orally dosed with vehicle or PDE4 inhibitor using a 15 cm dosing needle that was passed down the back of the throat into the oesophagus. After dosing, the animals were returned to holding cages fitted with Perspex doors to allow observation, and given free access to water. After dosing, the animals were constantly observed and any emesis or behavioral changes were recorded. The animals were allowed access to food 60 to 90 minutes after p.o. dosing.
Thirty minutes after p.o. dosing with compound or vehicle control, the ferrets were placed into sealed Perspex containers and exposed to an aerosol of LPS (100 μg/ml) for 10 minutes. Aerosols of LPS were generated by a nebulizer (DeVilbiss, USA) and this was directed into the Perspex exposure chamber. Following a 10 minute exposure period, the animals were returned to the holding cages and allowed free access to water, and at a later stage, food. Observation continued for a period of at least 2.5 hours post p.o. dosing and emetic episodes and behavioral changes were recorded.
2. Emetic episodes—the number of vomits and retches were counted.
3. Behavioral changes—the following behavioral effects were noted: salivation, panting, mouth clawing, flattened posture, ataxia, arched back and backward walking Any behavioral changes were semi-quantified by applying a severity rating (mild, moderate or severe).
4. The TI was calculated as the highest dose found to not cause emetic episodes divided by the lowest dose found to inhibit pulmonary neutrophilia by 50% or more.
Numbers in parentheses refer to the number of animals that responded. The numbers of animals in each group range from 4 to 22.
From these experiments, a therapeutic index (TI) was determined for each compound by dividing the threshold dose for inducing emetic episodes by the ED50 value for inhibiting the pulmonary neutrophilia.

## CCOc1cc(C(CS(C)(=O)=O)N2C(=O)c3cccc(NC(C)=O)c3C2=O)ccc1OC (single isomer, unassigned; (+)) [Compound A, (+)-2-[1-(3-ethoxy-4-methoxyphenyl)-2-methylsulfonylethyl]-4-acetylaminoisoindoline-1,3-dione]
Conscious ferret, p.o.
  Threshold emetic dose: 10 mg/kg
ferret, 0.1 mg/kg p.o.
  Ataxia, severity: None
  Backward walking, number of animals that responded: (3/5)
  Backward walking, severity: Mild
  Flattened posture, number of animals that responded: (2/5)
  Flattened posture, severity: Mild
  Lip licking, number of animals that responded: (4/5)
  Lip licking, severity: Mild
  Mouth clawing, severity: None
  Panting, severity: None
  Retches, severity: None
  Salivation, severity: None
  Vomits, severity: None
ferret, 0.3 mg/kg p.o.
  Ataxia, severity: None
  Backward walking, number of animals that responded: (4/6)
  Backward walking, severity: Mild
  Flattened posture, number of animals that responded: (2/6)
  Flattened posture, severity: Mild
  Lip licking, number of animals that responded: (3/6)
  Lip licking, severity: Mild
  Mouth clawing, severity: None
  Panting, severity: None
  Retches, severity: None
  Salivation, severity: None
  Vomits, severity: None
ferret, 1 mg/kg
  emetic episodes at anti-inflammatory dose: no emetic episodes
ferret, 1.0 mg/kg p.o.
  Ataxia, severity: None
  Backward walking, number of animals that responded: (4/6)
  Backward walking, severity: Mild
  Flattened posture, number of animals that responded: (2/6)
  Flattened posture, severity: Mild
  Lip licking, number of animals that responded: (6/6)
  Lip licking, severity: Mild
  Mouth clawing, severity: None
  Panting, severity: None
  Retches, severity: None
  Salivation, severity: None
  Vomits, severity: None
ferret, 3.0 mg/kg p.o.
  Ataxia, severity: None
  Backward walking, number of animals that responded: (5/8)
  Backward walking, severity: Moderate
  Flattened posture, number of animals that responded: (7/8)
  Flattened posture, severity: Marked
  Lip licking, number of animals that responded: (2/8)
  Lip licking, severity: Mild
  Mouth clawing, number of animals that responded: (1/8)
  Mouth clawing, severity: Mild
  Panting, severity: None
  Retches, severity: None
  Salivation, severity: None
  Vomits, severity: None
ferret, 10 mg/kg p.o.
  Ataxia, severity: None
  Backward walking, number of animals that responded: (6/6)
  Backward walking, severity: Marked
  Flattened posture, number of animals that responded: (6/6)
  Flattened posture, severity: Marked
  Lip licking, number of animals that responded: (5/6)
  Lip licking, severity: Moderate
  Mouth clawing, number of animals that responded: (1/6)
  Mouth clawing, severity: Mild
  Panting, severity: None
  Retches, severity: Mild
  Salivation, number of animals that responded: 1/6
  Salivation, severity: Mild
  Vomits, severity: None
  emesis: no frank emesis
  salivation and behavioral changes, score: mild or moderate
ferret, 10 mg/kg p.o., 10 mg/kg
  Retches, number of animals that responded: 2/6 and (2/6)
ferret, 30 mg/kg p.o.
  Ataxia, number of animals that responded: (3/4)
  Ataxia, severity: Mild
  Backward walking, number of animals that responded: (2/4)
  Backward walking, severity: Mild
  Flattened posture, number of animals that responded: (4/4)
  Flattened posture, severity: Marked
  Lip licking, number of animals that responded: (4/4)
  Lip licking, severity: Moderate
  Mouth clawing, number of animals that responded: (4/4)
  Mouth clawing, severity: Marked
  Panting, number of animals that responded: (1/4)
  Panting, severity: Mild
  Retches, number of animals that responded: (3/4)
  Retches, severity: Marked
  Salivation, number of animals that responded: (3/4)
  Salivation, severity: Moderate
  Vomits, number of animals that responded: (3/4)
  Vomits, severity: Moderate
  behavioral changes: pronounced
  emesis, animals affected: 3/4
  emesis, severity: moderate to marked
ferret, 0.1-3 mg/kg p.o.
  behavioral changes (flattened posture, lip licking, backward walking), classification: mild
  emetic episodes (retching and vomiting): no emetic episodes
Threshold emetic dose divided by ED50 for pulmonary neutrophilia, ferret
  Therapeutic index: 12
